Experimental data: ChEMBL document CHEMBL6134797, “Exploring 7β-amino-6-nitrocholestens as COVID-19 antivirals: in silico, synthesis, evaluation, and integration of artificial intelligence (AI) in drug design: assessing the cytotoxicity and antioxidant activity of 3β-acetoxynitrocholestane” (RSC Med Chem, 2024)
Values after ≈ are worked out from the molar mass of the structure shown. Active and inactive are the calls of the source. The calls are words filed in the database; no cut-off is given here.

Columns and labels:
[1] = Antioxidant activity assessed as DPPH radical scavenging activity at 10 ug/ml measured after 30 mins by UV-vis spectrophotometry relative to control; format: functional; details: dose 10.0 µg/ml
HT-29 [2] = assay: Cytotoxicity against human HT-29 cells assessed as reduction in cell viability measured after 24 hrs by MTT assay; format: functional, cell-based
SW-620 [3] = assay: Cytotoxicity against human SW620 cells assessed as reduction in cell viability measured after 24 hrs by MTT assay; format: functional, cell-based
HT-29 [4] = assay: Cytotoxicity against human HT-29 cells assessed as cell viability at 20 uM measured after 24 hrs by MTT assay relative to control; format: functional; details: read-out: Activity
SW-620 [5] = assay: Cytotoxicity against human SW620 cells assessed as cell viability at 20 uM measured after 24 hrs by MTT assay relative to control; format: functional; details: read-out: Activity
[6] = Cytotoxicity against splenocytes (unknown origin) assessed as reduction in cell viability at 1.25 to 20 uM measured after 24 hrs by MTT assay; format: toxicity, cell-based; details: splenocyte, dose 1.25-20 µM
[7] = Antioxidant activity assessed as DPPH radical scavenging activity measured after 30 mins by UV-vis spectrophotometry; format: functional
[8] = Antioxidant activity assessed as DPPH radical scavenging activity up to 10 ug/ml measured after 30 mins by UV-vis spectrophotometry; format: functional; details: dose <= 10.0 µg/ml

CCN(CC)[C@H]1C([N+](=O)[O-])=C2C=CCC[C@]2(C)[C@H]2CC[C@]3(C)[C@@H]([C@H](C)CCCC(C)C)CC[C@H]3[C@H]12
Activity [1]: 64.8%

CC(=O)O[C@@H]1C=C2C([N+](=O)[O-])=C[C@H]3[C@@H]4CC[C@H]([C@H](C)CCCC(C)C)[C@@]4(C)CC[C@@H]3[C@@]2(C)CC1
Activity (HT-29 [2]): Dose-dependent-effect
IC50 (HT-29 [2]; HT-29, 24 h): 11.5 µM
Activity [1]: 86.2%
Activity (SW-620 [3]): Dose-dependent-effect
IC50 (SW-620 [3]; SW-620, 24 h): 10 µM
viability at 20 µM (HT-29 [4]): 10.8%
viability at 20 µM (SW-620 [5]): 15.2%
Activity [6]: Non-toxic
IC50 [7]: 2.78 µg/mL (≈ 5.89 µM)

CN[C@H]1C([N+](=O)[O-])=C2C[C@@H](O)CC[C@]2(C)[C@H]2CC[C@]3(C)[C@@H]([C@H](C)CCCC(C)C)CC[C@H]3[C@H]12
Activity [1]: 51.2%

CN[C@H]1C([N+](=O)[O-])=C2C=C(Cl)CC[C@]2(C)[C@H]2CC[C@]3(C)[C@@H]([C@H](C)CCCC(C)C)CC[C@H]3[C@H]12
Activity [1]: 66.5%

CC(C)CCC[C@@H](C)[C@H]1CC[C@H]2[C@@H]3[C@@H](N(C)C)C([N+](=O)[O-])=C4C=CCC[C@]4(C)[C@H]3CC[C@]12C
Activity [1]: 80.6%
IC50 [7]: 3.08 µg/mL (≈ 6.74 µM)

CN[C@H]1C([N+](=O)[O-])=C2C=CCC[C@]2(C)[C@H]2CC[C@]3(C)[C@@H]([C@H](C)CCCC(C)C)CC[C@H]3[C@H]12
Activity [1]: 67.9%

O=C1O[C@H]([C@@H](O)CO)C(O)=C1O
Activity [8]: Active
